Consider one compound from US8357413B2, “Process for the disinfection and/or preservation of harvested plant material” (Solvay (Societe Anonyme), priority 2003, dated 2013).

The test system of the experiment is aerobic micro-organism activity. The experiment in a line: Example 4: aerobic stability of forage (temperature rise in insulated boxes). As for the experimental part:
The treatments shown in examples 1 and 2 were also evaluated for their aerobic stability i.e. under conditions representing opening of the clamp to use the forage as feed thus allowing air to enter the clamp. In this case comparisons were made with untreated forage as in examples 1 and 2 and also with forage treated with a typical acid product, formic acid (85% w/w) applied at 2.5 liters per tonne of grass. 750 g of the forages were stored in insulated boxes placed in a controlled environment at 20-22° C. A temperature probe was inserted into each box linked to a data logger to monitor temperature changes hourly over a 6 day period.

As for `O=CO` [Formic Acid, formic acid], the “Temperature Day 0” value (750 g forage in insulated boxes at 20-22° C., Day 0) amounted to 17.8 °C. For the same compound, for the setting “750 g forage in insulated boxes at 20-22° C., Day 6”, the “Temperature Day 6” value was determined as 20.5 °C. The Temperature increase entry (Day 0 to Day 6) was “+2.7 °C”.
